Experimental data taken from patent USRE49850E1, “N-(pyridin-2-yl)-4-(thiazol-5-yl)pyrimidin-2-amine derivatives as therapeutic compounds” (AUCENTRA THERAPEUTICS PTY LTD, priority 2015, dated 2024).
Where two headings read alike, the source gives them in different places.

What was measured:
CDK1B = CDK1B (Homo sapiens, UniProt P06493); assay: Kinase assay CDK1B (radiometric profiling service); format: biochemical; conditions: for Ki: apparent Ki calculated from Km (ATP) and IC50, read-out: CDK inhibition Ki CDK1B
CDK1B, sequence (P06493 whole entry): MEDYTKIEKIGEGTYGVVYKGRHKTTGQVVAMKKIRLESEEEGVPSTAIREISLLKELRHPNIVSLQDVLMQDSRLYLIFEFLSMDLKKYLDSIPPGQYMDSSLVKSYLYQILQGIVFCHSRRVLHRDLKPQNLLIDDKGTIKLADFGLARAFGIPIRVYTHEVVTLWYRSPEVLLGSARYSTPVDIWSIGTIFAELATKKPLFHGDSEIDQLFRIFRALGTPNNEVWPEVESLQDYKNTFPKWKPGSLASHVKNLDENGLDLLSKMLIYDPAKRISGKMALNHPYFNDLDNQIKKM
CDK1B, sequence (P14635 whole entry partner): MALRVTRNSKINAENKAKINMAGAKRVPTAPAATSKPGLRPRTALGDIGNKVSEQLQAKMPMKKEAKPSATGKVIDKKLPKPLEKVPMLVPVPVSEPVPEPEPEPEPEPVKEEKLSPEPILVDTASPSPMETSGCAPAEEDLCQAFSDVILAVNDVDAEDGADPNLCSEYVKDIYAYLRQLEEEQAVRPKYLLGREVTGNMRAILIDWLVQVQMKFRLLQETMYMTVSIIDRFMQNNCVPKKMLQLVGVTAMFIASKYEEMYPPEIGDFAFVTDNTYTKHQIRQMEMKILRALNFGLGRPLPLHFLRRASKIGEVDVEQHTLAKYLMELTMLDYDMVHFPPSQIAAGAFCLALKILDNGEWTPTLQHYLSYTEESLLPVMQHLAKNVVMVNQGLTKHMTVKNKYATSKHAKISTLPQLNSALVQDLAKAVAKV
Summary of the method: (§1)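 CDK7, CDK2 and CDK1 inhibition was measured by an external radiometric profiling service; CDK4/D1 by radiometric or in-house ADP-Glo assay with RB-CTF substrate in […] pH 7.5, 20 mM MgCl2, 0.4 mM DTT, 0.1 mg/ml BSA, for 40 min at 37° C. IC50 came from four-parameter fits; Ki from IC50 and Km (ATP).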

MV4-11 = assay: Cell viability assay (resazurin, leukemia cell line) MV4-11; format: cell-based, human
Excerpt: (§2) Compounds from Example 1 were subjected to a standard MTT (3-(4,5-dimethylthiazol-2-yl)-2,5-diphenyltetrazolium bromide) and resazurin assays on solid tumour cell lines and leukemia cell lines, respectively, as previously reported (Wang S et al., J Med Chem 47:1662-1675, 2004 and Diab S. et al. CheMedChem 9:962-972, 2014).

CDK4D1 = molecular target: T1, CDK4D1 (Homo sapiens, UniProt P11802); assay: Kinase assay CDK4/D1 (radiometric or ADP Glo); format: biochemical; conditions: apparent Ki calculated from Km (ATP) and IC50; read-out: CDK inhibition Ki CDK4D1
T1 construct: purchased Eurofins Pharma Discovery or Reaction Biology Corporation (service)
T1 sequence (P11802 whole entry): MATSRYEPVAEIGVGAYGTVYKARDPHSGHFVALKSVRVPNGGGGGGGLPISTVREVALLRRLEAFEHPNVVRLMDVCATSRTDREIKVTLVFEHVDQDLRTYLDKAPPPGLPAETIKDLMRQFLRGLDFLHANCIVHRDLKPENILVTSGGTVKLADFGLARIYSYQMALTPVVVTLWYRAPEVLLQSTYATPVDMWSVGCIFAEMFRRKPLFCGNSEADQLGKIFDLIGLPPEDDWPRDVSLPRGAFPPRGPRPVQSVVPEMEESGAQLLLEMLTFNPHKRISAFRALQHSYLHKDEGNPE
T1 sequence (P24385 whole entry partner): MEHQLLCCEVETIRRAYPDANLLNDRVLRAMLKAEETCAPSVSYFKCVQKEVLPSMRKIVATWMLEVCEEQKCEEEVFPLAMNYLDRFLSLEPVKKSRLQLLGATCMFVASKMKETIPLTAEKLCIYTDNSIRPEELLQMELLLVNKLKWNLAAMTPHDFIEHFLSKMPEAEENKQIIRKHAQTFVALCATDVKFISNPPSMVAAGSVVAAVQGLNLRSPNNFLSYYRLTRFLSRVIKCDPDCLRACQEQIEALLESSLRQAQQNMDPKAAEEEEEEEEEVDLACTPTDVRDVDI
Summary of the method: as §1

CDK7H = CDK7H (Homo sapiens, UniProt P50613); assay: Kinase assay CDK7H (radiometric profiling service); format: biochemical; conditions: for Ki: apparent Ki calculated from Km (ATP) and IC50, read-out: CDK inhibition Ki CDK7H
CDK7H, sequence (P50613 whole entry): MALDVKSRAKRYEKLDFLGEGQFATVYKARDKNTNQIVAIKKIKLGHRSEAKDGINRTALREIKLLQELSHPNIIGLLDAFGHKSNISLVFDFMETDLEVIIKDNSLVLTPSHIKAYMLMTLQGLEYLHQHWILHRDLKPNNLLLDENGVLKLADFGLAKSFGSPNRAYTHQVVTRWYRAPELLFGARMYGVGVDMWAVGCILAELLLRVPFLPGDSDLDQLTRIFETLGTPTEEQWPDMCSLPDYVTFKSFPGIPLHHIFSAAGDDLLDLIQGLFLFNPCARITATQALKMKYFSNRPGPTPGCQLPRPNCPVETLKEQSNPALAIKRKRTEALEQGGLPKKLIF
CDK7H, sequence (P51946 whole entry partner): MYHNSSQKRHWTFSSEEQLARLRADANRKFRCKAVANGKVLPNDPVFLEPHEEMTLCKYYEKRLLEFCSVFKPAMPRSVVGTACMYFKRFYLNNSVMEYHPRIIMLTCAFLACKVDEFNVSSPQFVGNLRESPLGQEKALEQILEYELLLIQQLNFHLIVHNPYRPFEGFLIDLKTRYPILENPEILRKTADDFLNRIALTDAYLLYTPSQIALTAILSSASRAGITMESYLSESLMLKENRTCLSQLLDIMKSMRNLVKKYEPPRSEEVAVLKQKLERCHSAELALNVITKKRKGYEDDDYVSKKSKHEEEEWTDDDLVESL
CDK7H, sequence (P51948 whole entry partner): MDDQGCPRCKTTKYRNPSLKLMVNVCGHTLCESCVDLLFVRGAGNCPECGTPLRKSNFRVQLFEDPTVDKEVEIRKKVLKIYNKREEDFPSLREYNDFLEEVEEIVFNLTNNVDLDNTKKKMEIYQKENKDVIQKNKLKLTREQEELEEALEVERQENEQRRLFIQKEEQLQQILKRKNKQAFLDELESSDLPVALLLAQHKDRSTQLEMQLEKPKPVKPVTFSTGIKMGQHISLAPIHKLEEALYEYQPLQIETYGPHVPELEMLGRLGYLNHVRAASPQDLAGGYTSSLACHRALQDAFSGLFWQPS
Summary of the method: as §1

D458 = assay: Cell viability assay, medulloblastoma D458; format: cell-based; conditions: Homo sapiens, 72 h, read-out: Antiproliferative activity GI50 D458
Excerpt: as §2

MDA-MB-453 = assay: Cell viability assay (MTT, solid tumour cell line) MDA-MB-453; format: cell-based, human
Excerpt: as §2

CDK9T1 = molecular target: T2, CDK9T1 (Homo sapiens, UniProt P50750); assay: Kinase assay CDK9/T1 (radiometric or ADP Glo); format: biochemical; conditions: apparent Ki calculated from Km (ATP) and IC50; read-out: CDK inhibition Ki CDK9T1
T2 construct: purchased Eurofins Pharma Discovery or Reaction Biology Corporation (service)
T2 sequence (P50750 whole entry): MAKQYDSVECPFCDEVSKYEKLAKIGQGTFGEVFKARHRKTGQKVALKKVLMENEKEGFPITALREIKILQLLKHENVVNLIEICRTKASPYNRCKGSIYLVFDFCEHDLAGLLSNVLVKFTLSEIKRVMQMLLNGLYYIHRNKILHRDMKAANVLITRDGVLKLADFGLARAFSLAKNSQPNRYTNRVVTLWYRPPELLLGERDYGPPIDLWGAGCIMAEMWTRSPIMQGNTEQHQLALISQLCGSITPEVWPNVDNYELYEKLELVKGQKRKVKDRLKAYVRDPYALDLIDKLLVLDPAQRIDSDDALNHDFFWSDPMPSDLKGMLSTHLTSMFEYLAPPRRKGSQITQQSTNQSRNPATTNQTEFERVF
T2 sequence (O60563 whole entry partner): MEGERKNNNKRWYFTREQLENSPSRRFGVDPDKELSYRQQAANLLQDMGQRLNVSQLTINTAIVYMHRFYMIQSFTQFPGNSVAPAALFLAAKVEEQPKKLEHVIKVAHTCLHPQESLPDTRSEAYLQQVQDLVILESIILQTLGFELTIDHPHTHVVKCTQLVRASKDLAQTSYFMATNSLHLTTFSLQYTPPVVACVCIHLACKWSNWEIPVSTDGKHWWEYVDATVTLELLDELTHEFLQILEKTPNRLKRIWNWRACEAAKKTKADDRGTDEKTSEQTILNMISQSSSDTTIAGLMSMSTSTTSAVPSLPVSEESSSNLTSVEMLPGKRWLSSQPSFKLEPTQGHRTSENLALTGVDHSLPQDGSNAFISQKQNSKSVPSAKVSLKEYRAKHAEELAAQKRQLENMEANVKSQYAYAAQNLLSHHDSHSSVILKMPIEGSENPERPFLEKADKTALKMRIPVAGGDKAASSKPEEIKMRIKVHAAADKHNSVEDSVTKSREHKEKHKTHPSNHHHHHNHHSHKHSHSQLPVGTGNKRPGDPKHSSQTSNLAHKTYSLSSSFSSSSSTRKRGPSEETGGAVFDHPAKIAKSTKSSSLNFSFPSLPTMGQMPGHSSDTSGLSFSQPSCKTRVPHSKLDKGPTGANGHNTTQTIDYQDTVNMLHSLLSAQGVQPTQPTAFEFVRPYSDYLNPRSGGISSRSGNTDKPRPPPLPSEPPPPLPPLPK
Summary of the method: (§3)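 Radiometric inhibition data for CDKs came from Eurofins or Reaction Biology profiling services; CDK4/D1 was also run in-house by ADP-Glo in […] pH 7.5, 20 mM MgCl2, 0.4 mM DTT, 0.1 mg/ml BSA with RB-CTF substrate, 40 min at 37 °C after ATP start. Ten-point 1:3 dilutions (10 μM–0.5 nM); four-parameter IC50, Ki from IC50 and ATP Km.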

CDK 2A = CDK 2A (Homo sapiens, UniProt P24941); assay: Kinase assay CDK2A (radiometric profiling service); format: biochemical; conditions: for Ki: apparent Ki calculated from Km (ATP) and IC50, read-out: CDK inhibition Ki CDK 2A
Summary of the method: as §1

CDK6D3 = molecular target: T3, CDK6D3 (Homo sapiens, UniProt Q00534); assay: Kinase assay CDK6/D3 (radiometric or ADP Glo); format: biochemical; conditions: apparent Ki calculated from Km (ATP) and IC50; read-out: CDK inhibition Ki CDK6D3
T3 construct: purchased Eurofins Pharma Discovery or Reaction Biology Corporation (service)
T3 sequence (Q00534 whole entry): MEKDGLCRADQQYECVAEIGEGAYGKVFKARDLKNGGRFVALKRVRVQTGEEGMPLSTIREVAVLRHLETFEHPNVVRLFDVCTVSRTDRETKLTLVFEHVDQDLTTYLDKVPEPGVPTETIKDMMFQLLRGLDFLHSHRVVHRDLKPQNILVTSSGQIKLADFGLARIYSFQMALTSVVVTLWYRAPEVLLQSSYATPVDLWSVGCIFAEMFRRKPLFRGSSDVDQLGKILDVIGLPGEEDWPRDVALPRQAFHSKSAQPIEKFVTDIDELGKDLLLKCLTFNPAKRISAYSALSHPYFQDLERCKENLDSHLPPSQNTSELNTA
T3 sequence (P30281 whole entry partner): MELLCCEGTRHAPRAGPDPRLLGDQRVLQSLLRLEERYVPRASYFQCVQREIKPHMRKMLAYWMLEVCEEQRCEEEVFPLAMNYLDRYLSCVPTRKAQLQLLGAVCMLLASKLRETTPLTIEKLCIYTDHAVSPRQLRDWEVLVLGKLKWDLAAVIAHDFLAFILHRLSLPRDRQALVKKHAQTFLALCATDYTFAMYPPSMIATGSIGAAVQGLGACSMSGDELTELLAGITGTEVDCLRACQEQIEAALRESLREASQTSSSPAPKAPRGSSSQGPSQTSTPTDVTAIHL
Summary of the method: as §3

A2780 = assay: Cell viability assay, ovarian A2780; format: cell-based; conditions: Homo sapiens, read-out: Antiproliferative activity GI50 A2780
Excerpt: as §2

D283 = assay: Cell viability assay, medulloblastoma D283; format: cell-based; conditions: Homo sapiens, read-out: Antiproliferative activity GI50 D283
Excerpt: as §2

[1] = Homo sapiens, MV4-11, 72 h; read-out: Anti-proliferative activity GI50 MV4-11
[2] = Homo sapiens, MDA-MB-453, 72 h; read-out: Anti-proliferative activity GI50 MDA-MB-453

SMILES	Ki (CDK1B) [nM]	GI50 (MV4-11; Homo sapiens, MV4-11, 72 h, read-out: Anti-proliferative activity GI50 MV4-11) [nM]	Ki (CDK4D1) [nM]	Ki (CDK7H) [nM]	GI50 (D458) [nM]	GI50 (MDA-MB-453; Homo sapiens, MDA-MB-453, 72 h, read-out: Anti-proliferative activity GI50 MDA-MB-453) [nM]	Ki (CDK9T1) [nM]	Ki (CDK 2A) [nM]	Ki (CDK6D3) [nM]	GI50 (A2780; A2780, 72 h) [nM]	GI50 (D283; D283, 72 h) [nM]	GI50 (MV4-11; [1]) [nM]	GI50 (D458; Medulloblastoma) [nM]	GI50 (MDA-MB-453; [2]) [nM]	GI50 (A2780; A2780, 72 h, Ovarian) [nM]	GI50 (D283; D283, 72 h, Medulloblastoma) [nM]	remaining activity at 10 µM (CDK1B; compound at 10 μM, read-out: % remaining enzymatic activity at 10 μM CDK1B) [%]	remaining activity at 10 µM (CDK7H; compound at 10 μM, read-out: % remaining enzymatic activity at 10 μM CDK7H) [%]	remaining activity at 10 µM (CDK 2A; compound at 10 μM, read-out: % remaining enzymatic activity at 10 μM CDK 2A) [%]
CNc1nc(C)c(-c2ccnc(Nc3ccc(N4CCN(C)CC4)cn3)n2)s1 [Compound 29, N,4-dimethyl-5-(2-((5-(4-methylpiperazin-1-yl)pyridin-2-yl)amino)pyrimidin-4-yl)thiazol-2-amine]	3210	297 ± 61	5	> 5000	326 ± 29	544 ± 78	1820	650	50	282 ± 58	335 ± 97	–	–	–	–	–	–	–	–
CNc1nc(C)c(-c2nc(Nc3ccc(N4CCN(C)CC4)cn3)ncc2F)s1 [Compound 31, 5-(5-fluoro-2-((5-(4-methylpiperazin-1-yl)pyridin-2-yl)amino)pyrimidin-4-yl)-N,4-dimethylthiazol-2-amine]	> 5000	–	2	> 5000	–	–	1910	365	10	–	–	11 ± 4	645 ± 97	381 ± 96	94 ± 1	489 ± 22	–	–	–
CC(=O)N1CCN(c2ccc(Nc3ncc(F)c(-c4sc(N(C)C)nc4C)n3)nc2)CC1 [Compound 49, 1-(4-(6-((4-(2-(dimethylamino)-4-methylthiazol-5-yl)-5-fluoropyrimidin-2-yl)amino)pyridin-3-yl)piperazin-1-yl)ethan-1-one]	> 5000	–	24	> 5000	–	–	> 5000	1040	366	–	–	208 ± 30	–	2370 ± 26	–	–	–	–	–
CNc1nc(C)c(-c2nc(Nc3ccc(N4CCN(S(C)(=O)=O)CC4)cn3)ncc2F)s1 [Compound 52, 5-(5-fluoro-2-((5-(4-(methylsulfonyl)piperazin-1-yl)pyridin-2-yl)amino)pyrimidin-4-yl)-N,4-dimethylthiazol-2-amine]	580	–	37	> 5000	–	–	> 5000	76	297	–	–	425 ± 73	–	660 ± 92	–	–	–	–	–
CNc1nc(C)c(-c2nc(Nc3ccc(N4CCCNCC4)cn3)ncc2F)s1 [Compound 53, 5-(2-((5-(1,4-diazepan-1-yl)pyridin-2-yl)amino)-5-fluoropyrimidin-4-yl)-N,4-dimethylthiazol-2-amine]	2370	–	3	> 5000	–	–	3040	206	32	–	–	80 ± 13	–	362 ± 3	–	–	–	–	–
Cc1nc(NC(C)C)sc1-c1ccnc(Nc2ccc(N3CCOCC3)cn2)n1 [Compound 58, N-isopropyl-4-methyl-5-(2-((5-morpholinopyridin-2-yl)amino)pyrimidin-4-yl)thiazol-2-amine]	> 5000	–	41	> 5000	–	–	> 5000	127	82	–	–	32 ± 3	–	115 ± 24	–	–	–	–	–
Cc1nc(NC2CCCC2)sc1-c1nc(Nc2ccc(N3CCN(C)CC3)cn2)ncc1F [Compound 64]	–	–	–	–	–	–	–	–	–	–	–	73 ± 28	457 ± 171	202 ± 30	56 ± 7	77 ± 6	–	–	–
CC(=O)N1CCN(c2ccc(Nc3ncc(F)c(-c4sc(NC5CCCC5)nc4C)n3)nc2)CC1 [Compound 69, 1-(4-(6-((4-(2-(cyclopentylamino)-4-methylthiazol-5-yl)-5-fluoropyrimidin-2-yl)amino)pyridin-3-yl)piperazin-1-yl)ethan-1-one]	> 5000	–	34	> 5000	–	–	4990	228	23	–	–	15 ± 2	–	8110 ± 1150	–	–	–	–	–
FC(F)(F)c1nc(NC2CCCC2)sc1-c1ccnc(Nc2ccc(N3CCOCC3)cn2)n1 [Compound 73, N-cyclopentyl-5-(2-((5-morpholinopyridin-2-yl)amino)pyrimidin-4-yl)-4-(trifluoromethyl)thiazol-2-amine]	> 5000	–	8	> 5000	–	–	> 5000	154	11	–	–	69 ± 13	–	415 ± 103	–	–	–	–	–
Cc1nc(NC2CCCC2)sc1-c1ccnc(Nc2ccc(N3CCCCC3)cn2)n1 [Compound 75, N-cyclopentyl-4-methyl-5-(2-((5-(piperidin-1-yl)pyridin-2-yl)amino)pyrimidin-4-yl)thiazol-2-amine]	> 5000	–	70	> 5000	–	–	> 5000	> 5000	257	–	–	191 ± 29	–	7040 ± 710	–	–	–	–	–
Cc1nc(NC2CCCC2)sc1-c1nc(Nc2ccc(N3CCC(N(C)C)CC3)cn2)ncc1F [Compound 80, N-cyclopentyl-5-(2-((5-(4-(dimethylamino)piperidin-1-yl)pyridin-2-yl)amino)-5-fluoropyrimidin-4-yl)-4-methylthiazol-2-amine]	> 5000	–	1	> 5000	–	–	1090	1150	31	–	–	454 ± 40	–	356 ± 24	–	–	–	–	–
Cc1nc(NC2CCCC2)sc1-c1nc(Nc2ccc(N3CCN(S(C)(=O)=O)CC3)cn2)ncc1F [Compound 82, N-cyclopentyl-5-(5-fluoro-2-((5-(4-(methylsulfonyl)piperazin-1-yl)pyridin-2-yl)amino)pyrimidin-4-yl)-4-methylthiazol-2-amine]	> 5000	–	39	> 5000	–	–	> 5000	348	101	–	–	2630 ± 582	–	2810 ± 89	–	–	–	–	–
CC(=O)N1CCN(c2ccc(Nc3nccc(-c4sc(N(C)C5CCCC5)nc4C)n3)nc2)CC1 [Compound 87, 1-(4-(6-((4-(2-(cyclopentyl(methyl)amino)-4-methylthiazol-5-yl)pyrimidin-2-yl)amino)pyridin-3-yl)piperazin-1-yl)ethan-1-one]	3170	–	10	> 5000	–	–	> 5000	121	31	–	–	328 ± 7	–	6860 ± 798	–	–	–	–	–
Cc1nc(Nc2ccccc2)sc1-c1ccnc(Nc2ccc(N3CCN(C)CC3)cn2)n1 [Compound 90, 4-methyl-5-(2-((5-(4-methylpiperazin-1-yl)pyridin-2-yl)amino)pyrimidin-4-yl)-N-phenylthiazol-2-amine]	> 5000	–	19	> 5000	–	–	> 5000	> 5000	485	–	–	508 ± 42	–	494 ± 81	–	–	–	–	–
Cc1nc(N(C)c2ccccc2)sc1-c1ccnc(Nc2ccc(N3CCN(C)CC3)cn2)n1 [Compound 91, N,4-dimethyl-5-(2-((5-(4-methylpiperazin-1-yl)pyridin-2-yl)amino)pyrimidin-4-yl)-N-phenylthiazol-2-amine]	> 5000	–	26	> 5000	–	–	2000	1040	100	–	–	421 ± 44	–	150 ± 29	–	–	–	–	–
Cc1c(-c2ccnc(Nc3ccc(N4CCN(C)CC4)cn3)n2)sc(=O)n1C [Compound 93, 3,4-dimethyl-5-(2-((5-(4-methylpiperazin-1-yl)pyridin-2-yl)amino)pyrimidin-4-yl)thiazol-2(3H)-one]	–	–	255	–	–	–	840	–	915	–	–	3720 ± 357	–	> 10000	–	–	71	52	77
CCn1c(C)c(-c2ccnc(Nc3ccc(N4CCN(C)CC4)cn3)n2)sc1=O [Compound 94, 3-ethyl-4-methyl-5-(2-((5-(4-methylpiperazin-1-yl)pyridin-2-yl)amino)pyrimidin-4-yl)thiazol-2(3H)-one]	3660	–	33	1260	–	–	1580	1340	320	–	–	1830 ± 194	–	> 10000	–	–	–	–	–
